# Several values for one entry are separate records, joined by “and”; a condition that tells them apart may be missing. Identical values can stand only once.
# Tested on: MDA-MB-231 multicell spheroids, viability (%T/C)
# Experiment: Anticancer human tumor MDA-MB-231 cell line growth inhibition [IpAb];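 note: viability read after seven days of drug exposure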;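 for viability, T/C: 100% = DMSO vehicle control viability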
# Conditions: for viability, T/C: stronger effect = lower value
# Excerpt: Combinatorial screen of targeted agents with ipatasertib and abemaciclib in multi-cell type tumor spheroids
# A high-throughput screen of multi-cell type tumor spheroids was designed to identify active combinations of targeted small molecules and ipatasertib or abemaciclib. Complex spheroids include a stromal component modeled by human endothelial cells (HUVEC) and fibroblasts modeled by human mesenchymal stem cells (MSCs). The concentration ranges selected for each drug and investigational agent were based upon clinically achievable concentrations if the clinical Cmax of the agent was known.
# Compounds. The drugs and investigational agents: ipatasertib (NSC767898), abemaciclib(NSC768073), selumetinib (NSC741078), trametinib (758246), adavosertib (NSC754352), everolimus (NSC733504), sapanisertib (NSC764658), vemurafenib (NSC761431), venetoclax (NSC766270), copanlisib (NSC809693), apelisib (NSC765974), palbociblib (NSC758247), vemurafenib (NSC761431), dabrafenib (NSC764134), ravoxertinib (NSC781343), BMS-387032 (NSC767048), sotorasib (NSC818433), talazoparib (NSC767125) and afursertib (NSC778305), were obtained from the National Cancer Institute (NCI) Developmental Therapeutics Program Chemical Repository. The FDA-approved anticancer drug set is available from the NCI Developmental Therapeutics Program. […] The stock solutions were prepared in dimethyl sulfoxide (DMSO, Sigma-Aldrich, St. Louis, MO, cat. D2650) at 800-fold the tested concentration and stored at -70 degrees C prior to their use. All drugs and investigational agents were tested over a range starting from a high concentration at or near the clinical Cmax and decreasing in half-log increments. If the clinical Cmax for an agent had not been determined, the highest concentration tested was 10 microM.
# NCI60 Cell Culture. NCI60 cell lines were obtained from the NCI Developmental Therapeutics Program Tumor Repository. For each lot of cells, the Repository performed Applied Biosystems AmpFLSTR Identifiler testing with PCR amplification to confirm consistency with the published Identifier STR profile for each cell line. Cells were kept in continuous culture for no more than 20 passages. The optimal seeding densities for each of the cell lines at each time point assessed were determined prior to performing the concentration response studies. Briefly, the NCI60 human tumor lines were grown as monolayers in RPMI 1640 medium supplemented with 10% FBS and 2 mmol/L L-glutamine.
# An additional 9 lines were from the NCI60 cell line panel including MDA-MB-231 breast carcinoma, MDA-MB-468 breast carcinoma, MCF7 breast carcinoma, Hs578T breast carcinoma, MALME-3M melanoma, SK-MEL-2 melanoma, SK-OV-3 ovarian carcinoma, DU-145 prostate carcinoma, PC-3 prostate carcinoma, all cell lines along with major genetic alterations are listed on Table 2. Pooled donor human umbilical vein endothelial cells (HUVEC, Lonza, cat. CC-2519) and human mesenchymal stem cells (hMSC, Lonza, cat. PT-2501) were purchased from Lonza (Walkersville, MD).
# PDMR cell lines were grown in complete medium (DC medium): Dulbecco's modified Eagle's medium (DMEM)/F12 supplemented with 5% fetal bovine serum (FBS), 2 mM L-glutamine, 100 U/mL penicillin and 100 µg/ml streptomycin, 0.4 µg/ml hydrocortisone, 10 ng/ml epidermal growth factor (EGF) recombinant human protein, 24 µg/mL adenine, and 0.1 mg/mL primocin. During culture from frozen stock vials, PDMR cells were cultured in the same medium containing 10 µM Y-27632 (see Table 3). The PDCs were cultured in complete DMEM/F12 media without 10 microM Y-27632 dihydrochloride for at least two passages prior to the screen. The pooled donor HUVEC and hMSC were cultured in endothelial cell growth medium 2 (PromoCell, Heidelberg, Germany, cat. C-22011) and mesenchymal stem cell growth medium 2 (PromoCell, cat. C-28009), respectively. For all experiments, HUVEC and hMSC were used at passages </=5.
# […]
Structure (SMILES),"viability, T/C (compound 0.0316 µM)","viability, T/C (compound 0.1 µM)","viability, T/C (compound 0.316 µM)","viability, T/C (compound 1 µM)","viability, T/C (compound 3.16 µM)","viability, T/C (compound 10 µM)",IC50 (curve of compound),"viability, T/C (compound 0.01 µM)",further results
C=CC(=O)N1CCN(c2nc(=O)n(-c3c(C)ccnc3C(C)C)c3nc(-c4c(O)cccc4F)c(F)cc23)C(C)C1 (configuration not stated),106% and 110%,111% and 109%,109% and 117%,124% and 140%,122% and 126%,82% and 84.4%,> 10000 nM,,
C=CCn1c(=O)c2cnc(Nc3ccc(N4CCN(C)CC4)cc3)nc2n1-c1cccc(C(C)(C)O)n1,99.7% and 119%,84.6% and 96.2%,34.6% and 37.5%,18.5% and 17.7%,16.1% and 15.1%,21.8% and 20.7%,221 nM and 246 nM,,
CC(=O)c1c(C)c2cnc(Nc3ccc(N4CCNCC4)cn3)nc2n(C2CCCC2)c1=O,,,,,,,56.4 nM and 70.1 nM,,"viability, T/C (compound 0.000949 µM): 103% and 105%; viability, T/C (compound 0.003 µM): 88.5% and 88.2%; viability, T/C (compound 0.00949 µM): 74% and 79.3%; viability, T/C (compound 0.03 µM): 57.7% and 57.8%; viability, T/C (compound 0.0949 µM): 42.3% and 46%; viability, T/C (compound 0.3 µM): 38.7% and 38.9%"
CC(C)(C)c1cnc(CSc2cnc(NC(=O)C3CCNCC3)s2)o1,,,,,,,184 nM and 175 nM,,"viability, T/C (compound 0.00949 µM): 109%; viability, T/C (compound 0.03 µM): 118% and 115%; viability, T/C (compound 0.0949 µM): 120% and 105%; viability, T/C (compound 0.3 µM): 1.96% and 1.34%; viability, T/C (compound 0.949 µM): 1.07% and 1.11%; viability, T/C (compound 3 µM): 0.92% and 1.78%"
CC(C)NCC(C(=O)N1CCN(c2ncnc3c2C(C)CC3O)CC1)c1ccc(Cl)cc1 (configuration not stated),,95.4% [middle of 13 runs],84.7% [middle of 13 runs],70.5% [middle of 13 runs],54.9% [middle of 13 runs],39.5% [middle of 13 runs],,,"IC50 (compound alone, run of 06/01/2021): 4.43 µM [middle of 13 runs]"
CC(C)n1nc(-c2ccc3oc(N)nc3c2)c2c(N)ncnc21,46.5% and 41.5%,43.5% and 37.4%,,,,,23.8 nM and 8.68 nM,57.6% and 49.4%,"viability, T/C (compound 0.000316 µM): 97.7% and 101%; viability, T/C (compound 0.001 µM): 86.1% and 104%; viability, T/C (compound 0.00316 µM): 72.2% and 72.1%"
CC1(C)CCC(CN2CCN(c3ccc(C(=O)NS(=O)(=O)c4ccc(NCC5CCOCC5)c([N+](=O)[O-])c4)c(Oc4cnc5[nH]ccc5c4)c3)CC2)=C(c2ccc(Cl)cc2)C1,104% and 106%,105% and 104%,103% and 105%,98.5% and 103%,88.7% and 99.5%,10.3% and 8.49%,5570 nM and 5910 nM,,
CCCS(=O)(=O)Nc1ccc(F)c(C(=O)c2c[nH]c3ncc(-c4ccc(Cl)cc4)cc23)c1F,112% and 109%,111% and 109%,106% and 112%,100% and 104%,80.9% and 79.1%,46.6% and 41.1%,9000 nM and 7630 nM,,
CCN1CCN(Cc2ccc(Nc3ncc(F)c(-c4cc(F)c5nc(C)n(C(C)C)c5c4)n3)nc2)CC1,74.8% [middle of 13 runs],58.9% [middle of 13 runs],46.5% [middle of 13 runs],48.8% [middle of 13 runs],,,,88.6% [middle of 13 runs],
COc1c(OCCCN2CCOCC2)ccc2c3n(c(=NC(=O)c4cnc(N)nc4)nc12)CCN3,55.8% and 53.5%,43.3% and 42%,34.1% and 33.4%,37.6% and 40.3%,,,50.1 nM and 39.5 nM,70.3% and 69.2%,"viability, T/C (compound 0.00316 µM): 84% and 88.5%"

# Source: PubChem BioAssay AID2060328 (Molecular Pharmacology Branch, DTP, NCI, 2025)
